Consider five compounds from article PMC5071873, “The Effects of Puerarin on Rat Ventricular Myocytes and the Potential Mechanism” (Scientific Reports, 2016).

What all share (type): cell-based
The target of test [1] is T1, Kv7.1 (Homo sapiens, UniProt P51787).
T1 construct: expressed in transfected cells; host or cells: HEK293
In words: Whole-cell patch clamp of Kv7.1 currents (voltage steps) in transfected HEK293 cells. The note with it: activator alone, HEK293. The protocol:
(§1) The Tyrode’s solution contained (mM): 126 NaCl, 5.4 KCl, 1.8 CaCl2, 1 MgCl2, 0.33 NaH2PO4, 10 HEPES and 10 glucose, pH 7.4 (adjusted with NaOH). The Ca^2+-free Tyrode’s solution was prepared by removing CaCl2 from the Tyrode’s solution. The Kreb’s solution used for cell storage contained (mM): 70 glutamic acid, 30 KCl, 15 taurine, 0.5 MgCl2, 10 KH2PO4, 0.5 EGTA, 10 HEPES, 10 glucose, and 1% albumin, pH 7.4 (adjusted with KOH). The enzyme solution used for the rat cardiomyocyte isolation contained 0.08 g/L collagenase (type II) and 1.0 g/L BSA in Kreb’s solution. For action potential recording on cardiomyocyte, the pipette solution contained (mM): 100 potassium aspartate, 30 KCl, 1 MgCl2, 5 Mg-ATP, 5 EGTA, 5 HEPES, pH 7.3 (adjusted with KOH); the Tyrode’s solution was used as the standard bath solution. For whole-cell recording of IKs on myocytes, the pipette solution contained (mM): 125 potassium aspartate, 20 KCl, 1 MgCl2, 5 Mg-ATP, 10 EGTA, 5 HEPES, pH 7.3 (adjusted with KOH); the bath solution contained (mM): 132 NaCl, 4 KCl, 1.8 CaCl2, 1.2 MgCl2, 10 HEPES, 5 glucose, pH 7.4 (adjusted with NaOH). 3 μM nifedipine and 5 μM E-4031 were used to block the calcium current and IKr, respectively. For whole-cell recording on HEK-293 cells, the pipette solution contained (mM): 140 KCl, 2 MgCl2, 10 HEPES, 0.1 EGTA, 4 K2-ATP, pH 7.3 (adjusted with KOH); the bath solution contained (mM): 120 NaCl, 5 KCl, 1.5 CaCl2, 1 MgCl2, 10 HEPES, 10 glucose, pH 7.4 (adjusted with NaOH). For single-channel recording, the pipette solution (extracellular) contained (mM): 145 KCl, 10 HEPES, 10 glucose, pH 7.4 (adjusted with KOH); the bath solution (intracellular) contained (mM): 145 KCl, 1.2 MgCl2, 10 HEPES, 0.1 EGTA, pH 7.38 (adjusted with KOH).
(§2) Cell suspensions were transferred into a chamber on the stage of a Nikon Eclipse Ti inverted microscope (Tokyo, Japan). The whole-cell recordings were performed using isolated single ventricular myocytes. Patch electrodes were pulled from a horizontal microelectrode puller (P-1000, Sutter Instrument Co, USA) and fire polished to final tip resistance of 4.0–8.0 MΩ when filled with internal solutions. Signals were amplified with an Axopatch 200B amplifier (Axon Instruments, USA) and filtered at 1 kHz. The pCLAMP 9.0 software was used to generate current and voltage clamp protocols, acquire data, and analyse the current traces. The whole-cell series resistance was compensated to more than 80%. All of the experiments were performed at room temperature (22 ± 1 °C). The whole-cell IK1 was elicited by a ramp voltage protocol from −140 to + 40 mV in 1 s, or at a 0 mV holding potential to test potentials from −140 to + 40 mV in 10 mV increments. The IK1 was calculated as the difference between the peak inward current and the holding current level. The whole-cell Kv7.1/IKs were elicited from a −30 mV holding potential to test potentials from −80 to + 40 mV in 10 mV increments.
(§3) Human Kir2.1 cDNA, Kir2.3 cDNA, Kv7.1 cDNA and KCNE1 cDNA, was cloned in Human Embryonic Kidney 293 cells, respectively. In some cases, Kv7.1 cDNA and KCNE1 cDNA were simultaneously cloned in Human Embryonic Kidney 293 cells.
A general note: Patch clamp records ionic current or voltage across a cell membrane.

A further test deals with T2, IKs channel (Homo sapiens, UniProt P51787).
T2 construct: expressed in transfected cells; host or cells: HEK293
In words: Single-channel inside-out patch clamp recording of IKs. The note with it: 293B applied after puerarin 100 μM. The protocol: as §1, with “3 μM nifedipine and 5 μM E-4031 were used to block the calcium current and IKr, respectively. For whole-cell recording on HEK-293 cells, the pipette solution contained (mM): 140 KCl, 2 MgCl2, 10 HEPES, 0.1 EGTA, 4 K2-ATP, pH 7.3 (adjusted with KOH); the bath solution contained (mM): 120 NaCl, 5 KCl, 1.5 CaCl2, 1 MgCl2, 10 HEPES, 10 glucose, pH 7.4 (adjusted with NaOH). For single-channel recording, the pipette solution (extracellular) contained (mM): 145 KCl, 10 HEPES, 10 glucose, pH 7.4 (adjusted with KOH); the bath solution (intracellular) contained (mM): 145 KCl, 1.2 MgCl2, 10 HEPES, 0.1 EGTA, pH 7.38 (adjusted with KOH).” left out
(§4) Single-channel activity was recorded at a series of holding levels ranging from 10 mV of 50 mV. […] Single-channel events were listed and analysed by pclampfit 9.0 (single-channel search-in-analyse function). […]

For test [2], the target named is T1, Kv7.1. Briefly: Single-channel inside-out patch clamp recording of Kv7.1. To be noted: 293B applied after puerarin 100 μM. The protocol:
as §1, with “3 μM nifedipine and 5 μM E-4031 were used to block the calcium current and IKr, respectively. For whole-cell recording on HEK-293 cells, the pipette solution contained (mM): 140 KCl, 2 MgCl2, 10 HEPES, 0.1 EGTA, 4 K2-ATP, pH 7.3 (adjusted with KOH); the bath solution contained (mM): 120 NaCl, 5 KCl, 1.5 CaCl2, 1 MgCl2, 10 HEPES, 10 glucose, pH 7.4 (adjusted with NaOH). For single-channel recording, the pipette solution (extracellular) contained (mM): 145 KCl, 10 HEPES, 10 glucose, pH 7.4 (adjusted with KOH); the bath solution (intracellular) contained (mM): 145 KCl, 1.2 MgCl2, 10 HEPES, 0.1 EGTA, pH 7.38 (adjusted with KOH).” left out
as §4

Test [3] addresses T3, IKs channels (KCNQ and KCNE) (Homo sapiens, UniProt P51787).
T3 construct: expressed in transfected cells; host or cells: HEK293
In words: Whole-cell patch clamp of IKs currents (Kv7.1 + KCNE1, voltage steps) in transfected HEK293 cells. The protocol: as §1, §2, §3

The target in the next test is T4, IKs (Rattus norvegicus, UniProt Q9Z0N7).
T4 construct: endogenous in cells; host or cells: isolated adult rat ventricular myocytes
In words: Whole-cell recording of IKs on rat ventricular myocytes. The note with it: forskolin alone. The protocol:
as §1, with “3 μM nifedipine and 5 μM E-4031 were used to block the calcium current and IKr, respectively. For whole-cell recording on HEK-293 cells, the pipette solution contained (mM): 140 KCl, 2 MgCl2, 10 HEPES, 0.1 EGTA, 4 K2-ATP, pH 7.3 (adjusted with KOH); the bath solution contained (mM): 120 NaCl, 5 KCl, 1.5 CaCl2, 1 MgCl2, 10 HEPES, 10 glucose, pH 7.4 (adjusted with NaOH). For single-channel recording, the pipette solution (extracellular) contained (mM): 145 KCl, 10 HEPES, 10 glucose, pH 7.4 (adjusted with KOH); the bath solution (intracellular) contained (mM): 145 KCl, 1.2 MgCl2, 10 HEPES, 0.1 EGTA, pH 7.38 (adjusted with KOH).” left out
Cell suspensions were transferred into a chamber on the stage of a Nikon Eclipse Ti inverted microscope (Tokyo, Japan). […] The IK1 was calculated as the difference between the peak inward current and the holding current level. […]

For another test, the system named is rat ventricular myocytes. In words: Action potential recording on isolated rat ventricular myocytes. To be noted: isoproterenol 10 nM, comparing with control. The protocol:
as §1
Single ventricular myocytes were isolated from adult rat hearts via enzymatic dissociation as previously described. Briefly, the rats were anesthetised with 25% chloral hydrate (0.1 g/100 g). Their hearts were excised rapidly and retrogradely perfused on a Langendorff apparatus with a Ca^2+-free Tyrode’s solution for 5 min before the perfusate was switched to an enzymatic solution for 10–20 min. The perfusate was finally changed to Kreb’s solution for 5 min. The perfusates were bubbled with 95% O2 + 5% CO2 and maintained at 37 °C. The ventricles w ere cut into small chunks and gently agitated in Kreb’s solution. The cells were filtered through nylon mesh (pore size 200 μm) and stored in Kreb’s solution at 4 °C.
Action potentials were elicited at 1 Hz by 2 ms current pulses applied using the patch pipette.
as §2

For “8-Bromoadenosine-3′, 5′-cyclic monophosphorothioate [8-Br-cAMP]”, at Kv7.1 [1], the “effect on Kv7.1 current” value was “significantly enhanced”.
With `CCS(=O)(=O)N(C)[C@H]1c2cc(C#N)ccc2OC(C)(C)[C@@H]1O` [293B], the “open probability of IKs channel” value on IKs channel is on record as “further abolished”. Moreover, the “open probability of Kv7.1 channel” value on Kv7.1 [2] was “further abolished”.
The term EC50 denotes the concentration at which the effect is half-maximal. Turning to `O=C(O)[C@H]1O[C@@H](Oc2cc3oc(-c4ccccc4)cc(=O)c3c(O)c2O)[C@H](O)[C@@H](O)[C@@H]1O` [Baicalin], in test [3] (HEK293), the “maximal increased effect upon IKs currents” value is listed as 57.32 ± 3.07% and the “saturation dosage, enhancement of IKs” value was found to be 1 mM. For the same compound, the EC50 in test [3] (at the peak currents, non-linear Hill fit, read-out: EC50, enhancement of IKs currents) was found to be 138 µM. Moreover, the “Hill coefficient, enhancement of IKs” value in test [3] (non-linear Hill fit) was determined as 0.993.
For `C=C[C@@]1(C)CC(=O)[C@]2(O)[C@@]3(C)[C@@H](O)CCC(C)(C)[C@@H]3[C@H](O)[C@H](OC(C)=O)[C@@]2(C)O1` [Forskolin], the “effect on IKs current in rat cardiac myocytes” value at IKs is on record as “significantly enhanced”. The “effect on Kv7.1 current” value at Kv7.1 [1] was “significantly enhanced”.
Regarding `CC(C)NCC(O)c1ccc(O)c(O)c1` (centres unmarked) [Isoproterenol], the “effect on APD of rat ventricles” value with rat ventricular myocytes is listed as “significantly shortened”. On Kv7.1 [1], the “effect on Kv7.1 current” value is “significantly enhanced”.
